Test results: patent publication US4801613A, “Bradykinin antagonist peptides” (Nova Technology Limited Partnership, priority 1987, dated 1989)
Like-named read-outs stand apart in the source and are kept apart here. Non-standard residues stand in square brackets, D forms with d. Residues, ends and D or L forms follow the SMILES beside them. No end group written: not given here. Hyp = O=C(O)[C@@H]1C[C@@H](O)CN1; 2Thi = N[C@@H](Cc1cccs1)C(=O)O; d2Thi = N[C@H](Cc1cccs1)C(=O)O

Columns and labels:
[1] = system: isolated guinea pig ileum; type: cell-based
Protocol: (§1) The bradykinin antagonists were assayed on isolated rat uterus in natural or induced estrus and on guinea pig ileum, according to the commonly accepted assay methods for bradykinin and related kinins as described by Trautschold (Handbook of Expt. Pharmacol. Vol. 25, Springer Verlag, pp 53-55, 1970) for inhibition of the myotropic activity of bradykinin. The inhibition potencies, as determined according to the commonly accepted manner described by Schild for antagonists of biologically active compounds (Br. J. Pharmacol. 2:189, 1947), are determined on isolated rat uterus (RUT) and isolated guinea pig ileum (GPI). In the assays, a dose-response curve is determined for the reference substance bradykinin. The dose of bradykinin which produced a half maximal contraction of tissue is the ED50 dose. An amount of bradykinin equivalent to twice the ED50 dose is administered to the tissue 30 seconds after the start of incubation of the tissue with a dose of antagonist. Doses of antagonist are increased in this protocol until pre-incubation with a dose of antagonist reduces the contraction in response to the double ED50 dose of bradykinin to response of a single ED50 dose of bradykinin. The pA2 value represents the negative logarithm of the molar concentration of antagonist necessary to reduce the response of a double ED50 dose of bradykinin to that of an ED50 dose. One unit of pA2 value represents an order of magnitude change in potency. For comparison, the negative log of the dose of BK, the dose which causes half maximal contraction of the tissues, is commonly known as the pD2 value. The pD2 value for bradykinin is 7.9 on the rat uterus and 7.4 on the guinea pig ileum.
In each case, as shown, the BK-related antagonists inhibited contractions produced by BK-related agonists, but had no effect on the non-kinin myotropic peptide substances. The inhibition potencies are listed as pA2 values as described above.

[2] = system: isolated rat uterus; type: cell-based
Protocol: as §1

[3] = isolated rat uterus, vs double ED50 dose of bradykinin, Schild
[4] = isolated guinea pig ileum, vs double ED50 dose of bradykinin, Schild

N=C(N)NCCC[C@H](NC(=O)[C@H](Cc1ccccc1)NC(=O)[C@@H](Cc1cccs1)NC(=O)[C@H](CO)NC(=O)[C@H](Cc1ccccc1)NC(=O)CNC(=O)[C@@H]1CCCN1C(=O)[C@@H]1CCCN1C(=O)[C@@H](N)CCCNC(=N)N)C(=O)O [Example 2, Arg-Pro-Pro-Gly-Phe-Ser-DThi-Phe-Arg] (H-RPPGFS[d2Thi]FR-OH)
pA2/GPI [1]: 4.6

N=C(N)NCCC[C@H](NC(=O)[C@H](Cc1cccs1)NC(=O)[C@@H](Cc1ccccc1)NC(=O)[C@H](CO)NC(=O)[C@H](Cc1cccs1)NC(=O)CNC(=O)[C@@H]1C[C@@H](O)CN1C(=O)[C@@H]1C[C@@H](O)CN1C(=O)[C@@H](N)CCCNC(=N)N)C(=O)O [Example 22, Arg-Hyp-Hyp-Gly-Thi-Ser-DPhe-Thi-Arg] (H-R[Hyp][Hyp]G[2Thi]S[dF][2Thi]R-OH)
pA2/RUT [2]: 6.7

N=C(N)NCCC[C@@H](N)C(=O)N[C@@H](CCCNC(=N)N)C(=O)N1C[C@H](O)C[C@H]1C(=O)N1C[C@H](O)C[C@H]1C(=O)NCC(=O)N[C@@H](Cc1cccs1)C(=O)N[C@@H](CO)C(=O)N[C@H](Cc1ccccc1)C(=O)N[C@@H](Cc1cccs1)C(=O)N[C@@H](CCCNC(=N)N)C(=O)O [Example 65, DArg-Arg-Hyp-Hyp-Gly-Thi-Ser-DPhe-Thi-Arg] (H-[dR]R[Hyp][Hyp]G[2Thi]S[dF][2Thi]R-OH)
pA2/RUT [2]: 7.1

Arg-Hyp-Hyp-Gly-Thi-DPhe-CDF-Thi-Arg [Example 23]
pA2/RUT [2, 3]: 6.5

N=C(N)NCCC[C@H](NC(=O)[C@H](Cc1cccs1)NC(=O)[C@@H](Cc1ccccc1)NC(=O)[C@H](CO)NC(=O)[C@H](Cc1cccs1)NC(=O)CNC(=O)[C@@H]1C[C@@H](O)CN1C(=O)[C@@H]1CCCN1C(=O)[C@H](CCCNC(=N)N)NC(=O)[C@H](CCCCN)NC(=O)[C@@H](N)CCCCN)C(=O)O [Example 77, Lys-Lys-Arg-Pro-Hyp-Gly-Thi-Ser-DPhe-Thi-Arg] (H-KKRP[Hyp]G[2Thi]S[dF][2Thi]R-OH)
pA2/RUT [2]: 6.7

Arg-Pro-Pro-Gly-Thi-Ser-DPal-Thi-Arg [Example 8]
pA2/RUT [2, 3]: 4.2

N=C(N)NCCC[C@@H](N)C(=O)N[C@@H](CCCNC(=N)N)C(=O)N1CCC[C@H]1C(=O)N1CCC[C@@H]1C(=O)NCC(=O)N[C@@H](Cc1cccs1)C(=O)N[C@@H](CO)C(=O)N[C@H](Cc1ccccc1)C(=O)N[C@@H](Cc1cccs1)C(=O)N[C@@H](CCCNC(=N)N)C(=O)O [Example 16, DArg-Arg-Pro-DPro-Gly-Thi-Ser-DPhe-Thi-Arg] (H-[dR]RP[dP]G[2Thi]S[dF][2Thi]R-OH)
pA2/RUT [2]: 5.2

N=C(N)NCCC[C@H](NC(=O)[C@H](Cc1ccccc1)NC(=O)[C@@H](Cc1ccccc1)NC(=O)[C@H](CO)NC(=O)[C@H](Cc1ccccc1)NC(=O)CNC(=O)[C@@H]1CCCN1C(=O)[C@@H]1CCCN1C(=O)[C@H](CCCNC(=N)N)NC(=O)[C@H](CCCCN)NC(=O)[C@@H](N)CCCCN)C(=O)O [Example 13, Lys-Lys-Arg-Pro-Pro-Gly-Phe-Ser-DPhe-Phe-Arg] (H-KKRPPGFS[dF]FR-OH)
pA2/GPI [1]: 5.1

KKR[Hyp]G[2Thi]S[dF][2Thi]R [Example 19]
pA2/RUT [2, 3]: 5.8

Arg-Pro-Pro-Gly-Phe-Ser-DPal-Phe-Arg [Example 3]
pA2/RUT [2, 3]: 5.0
pA2/GPI [1, 4]: 4.8

N=C(N)NCCC[C@H](NC(=O)[C@H](Cc1cccs1)NC(=O)[C@@H](Cc1ccccc1)NC(=O)[C@H](CO)NC(=O)[C@H](Cc1cccs1)NC(=O)CNC(=O)[C@@H]1CCCN1C(=O)[C@@H]1C[C@@H](O)CN1C(=O)[C@@H](N)CCCNC(=N)N)C(=O)O [Example 18, Arg-Hyp-Pro-Gly-Thi-Ser-DPhe-Thi-Arg] (H-R[Hyp]PG[2Thi]S[dF][2Thi]R-OH)
pA2/RUT [2]: 5.6

N=C(N)NCCC[C@@H](N)C(=O)N[C@@H](CCCNC(=N)N)C(=O)N1C[C@H](O)C[C@H]1C(=O)N1CCC[C@H]1C(=O)NCC(=O)N[C@@H](Cc1cccs1)C(=O)N[C@@H](CO)C(=O)N[C@H](Cc1ccccc1)C(=O)N[C@@H](Cc1cccs1)C(=O)N[C@@H](CCCNC(=N)N)C(=O)O [Example 64, DArg-Arg-Hyp-Pro-Gly-Thi-Ser-DPhe-Thi-Arg] (H-[dR]R[Hyp]PG[2Thi]S[dF][2Thi]R-OH)
pA2/RUT [2]: 5.7

N=C(N)NCCC[C@H](NC(=O)[C@H](Cc1ccccc1)NC(=O)[C@@H](Cc1ccccc1)NC(=O)[C@H](CO)NC(=O)[C@H](Cc1ccccc1)NC(=O)CNC(=O)[C@@H]1CCCN1C(=O)[C@@H]1C[C@@H](O)CN1C(=O)[C@H](CCCNC(=N)N)NC(=O)[C@H](CCCCN)NC(=O)[C@@H](N)CCCCN)C(=O)O [Example 72, Lys-Lys-Arg-Hyp-Pro-Gly-Phe-Ser-DPhe-Phe-Arg] (H-KKR[Hyp]PGFS[dF]FR-OH)
pA2/RUT [2]: 5.6

N=C(N)NCCC[C@H](NC(=O)[C@H](Cc1cccs1)NC(=O)[C@@H](Cc1ccccc1)NC(=O)[C@H](CO)NC(=O)[C@H](Cc1cccs1)NC(=O)CNC(=O)[C@@H]1C[C@@H](O)CN1C(=O)[C@@H]1CCCN1C(=O)[C@@H](N)CCCNC(=N)N)C(=O)O [Example 20, Arg-Pro-Hyp-Gly-Thi-Ser-DPhe-Thi-Arg] (H-RP[Hyp]G[2Thi]S[dF][2Thi]R-OH)
pA2/RUT [2]: 7.0
pA2/GPI [1]: 4.7

N=C(N)NCCC[C@H](NC(=O)[C@H](Cc1cccs1)NC(=O)[C@@H](Cc1ccccc1)NC(=O)[C@H](CO)NC(=O)[C@H](Cc1cccs1)NC(=O)CNC(=O)[C@@H]1CCCN1C(=O)[C@@H]1CCCN1C(=O)[C@H](CCCNC(=N)N)NC(=O)[C@H](CCCCN)NC(=O)[C@@H](N)CCCCN)C(=O)O [Example 14, Lys-Lys-Arg-Pro-Pro-Gly-Thi-Ser-DPhe-Thi-Arg] (H-KKRPPG[2Thi]S[dF][2Thi]R-OH)
pA2/RUT [2]: 6.0
pA2/GPI [1]: 5.3

N=C(N)NCCC[C@@H](N)C(=O)N[C@@H](CCCNC(=N)N)C(=O)N1CCC[C@H]1C(=O)N1C[C@H](O)C[C@H]1C(=O)NCC(=O)N[C@@H](Cc1cccs1)C(=O)N[C@@H](CO)C(=O)N[C@H](Cc1ccccc1)C(=O)N[C@@H](Cc1cccs1)C(=O)N[C@@H](CCCNC(=N)N)C(=O)O [Example 21, DArg-Arg-Pro-Hyp-Gly-Thi-Ser-DPhe-Thi-Arg] (H-[dR]RP[Hyp]G[2Thi]S[dF][2Thi]R-OH)
pA2/RUT [2]: 7.2

Arg-Pro-Pro-Gly-Phe-DPhe-CDF-Phe-Arg [Example 5]
pA2/RUT [2, 3]: 4.9
pA2/GPI [1, 4]: 5.8

N=C(N)NCCC[C@H](NC(=O)[C@H](Cc1cccs1)NC(=O)[C@@H](Cc1cccs1)NC(=O)[C@H](CO)NC(=O)[C@H](Cc1cccs1)NC(=O)CNC(=O)[C@@H]1CCCN1C(=O)[C@@H]1CCCN1C(=O)[C@@H](N)CCCNC(=N)N)C(=O)O [Example 7, Arg-Pro-Pro-Gly-Thi-Ser-DThi-Thi-Arg] (H-RPPG[2Thi]S[d2Thi][2Thi]R-OH)
pA2/RUT [2]: 4.2
pA2/GPI [1]: 5.8

N=C(N)NCCC[C@H](NC(=O)[C@H](Cc1ccccc1)NC(=O)[C@@H](Cc1ccccc1)NC(=O)[C@@H](Cc1ccccc1)NC(=O)[C@H](Cc1ccccc1)NC(=O)CNC(=O)[C@@H]1CCCN1C(=O)[C@@H]1CCCN1C(=O)[C@@H](N)CCCNC(=N)N)C(=O)O [Example 4, Arg-Pro-Pro-Gly-Phe-DPhe-DPhe-Phe-Arg] (H-RPPGF[dF][dF]FR-OH)
pA2/GPI [1]: 5.2

N=C(N)NCCC[C@@H](N)C(=O)N[C@@H](CCCNC(=N)N)C(=O)N1CCC[C@H]1C(=O)N1CCC[C@@H]1C(=O)NCC(=O)N[C@@H](Cc1ccccc1)C(=O)N[C@@H](CO)C(=O)N[C@H](Cc1ccccc1)C(=O)N[C@@H](Cc1ccccc1)C(=O)N[C@@H](CCCNC(=N)N)C(=O)O [Example 11, DArg-Arg-Pro-DPro-Gly-Phe-Ser-DPhe-Phe-Arg]
RUT pA2 [2]: 4.6
pA2/RUT [2]: 4.0
